Target: T1, TMEM16A (acd) (Homo sapiens, UniProt Q5XXA6)
T1 sequence (Q5XXA6 1-986): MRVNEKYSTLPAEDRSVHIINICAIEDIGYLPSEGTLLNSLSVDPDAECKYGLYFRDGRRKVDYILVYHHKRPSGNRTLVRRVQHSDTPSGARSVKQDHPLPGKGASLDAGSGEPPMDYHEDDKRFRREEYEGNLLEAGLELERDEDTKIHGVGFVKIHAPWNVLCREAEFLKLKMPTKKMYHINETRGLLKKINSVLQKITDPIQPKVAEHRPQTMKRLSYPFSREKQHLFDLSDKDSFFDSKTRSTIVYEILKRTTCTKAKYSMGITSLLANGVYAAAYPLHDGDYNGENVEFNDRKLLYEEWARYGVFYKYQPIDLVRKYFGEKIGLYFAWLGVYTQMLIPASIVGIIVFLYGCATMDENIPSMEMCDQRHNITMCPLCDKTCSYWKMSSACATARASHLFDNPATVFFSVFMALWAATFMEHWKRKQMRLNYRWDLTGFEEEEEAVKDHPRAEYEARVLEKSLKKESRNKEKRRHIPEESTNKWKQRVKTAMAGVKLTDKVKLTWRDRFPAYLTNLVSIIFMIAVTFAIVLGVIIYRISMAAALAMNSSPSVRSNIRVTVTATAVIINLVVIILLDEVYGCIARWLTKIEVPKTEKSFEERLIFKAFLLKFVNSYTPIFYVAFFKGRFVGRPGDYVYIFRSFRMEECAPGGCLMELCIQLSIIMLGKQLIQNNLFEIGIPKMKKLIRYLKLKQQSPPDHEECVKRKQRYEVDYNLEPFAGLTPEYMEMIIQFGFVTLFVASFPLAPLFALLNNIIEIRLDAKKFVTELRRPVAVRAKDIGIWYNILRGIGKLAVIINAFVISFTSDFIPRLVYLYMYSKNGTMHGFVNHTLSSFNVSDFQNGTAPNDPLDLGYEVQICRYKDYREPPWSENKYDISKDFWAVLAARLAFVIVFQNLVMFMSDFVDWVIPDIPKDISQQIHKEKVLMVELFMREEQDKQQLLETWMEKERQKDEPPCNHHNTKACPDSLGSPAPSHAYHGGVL
Test: QPatch whole-cell electrophysiology, HEK293 TMEM16A (acd)
Type: cell-based
Settings: for effect on inward current at −100 mV, whole cell patch clamp: 170 nM free calcium, Vhold 0 mV; for IC50 / calcium-activated chloride current inhibited: QPatch; for IC50: outward current at +100 mV, 170 nM free intracellular calcium, ~60 s per concentration, read-out: TMEM16A Chloride Current (IC50); for calcium-activated chloride current inhibited: maximum antagonist activity; for time to achieve steady state block: single concentration
Description: HEK293 cells stably expressing the TMEM16A (acd) variant were purchased from SB Drug Discovery. The HEK293 TMEM16A (abc) stable cell line was from ChanTest and COLO-205 cells were purchased from ATCC. The same standard buffers and recording conditions listed below were used for QPatch studies on all three cell lines.
Recording Solutions: were made weekly as below and stored at room temperature until used. It is recommended not to add ATP to internal solution until immediately before using on the QPatch. The external buffer (in mM) was 140 NaCl, 4 KCl, 2 CaCl2, 1 MgCl2, 10 HEPES, 10 Glucose, pH7.4, while the internal buffer (in mM) was 110 CsCl, 20 TEA-Cl, 5.374 CaCl2, 1.75 MgCl2, 10 EGTA, 10 HEPES, 4 Na2ATP, pH 7.2.
Once established in whole-cell configuration, cells were clamped to a holding potential (Vhold) of 0 mV on 48 well single hole patch plate. A standardized IV protocol was used to elicit ionic current through the TMEM16A chloride channel at 20 s intervals. Steady-state voltage pulses were from −100 mV to +100 mV in +20 mV steps for a duration of 500 ms. After each pulse the voltage was returned to −100 mV for 50 ms to obtain tail currents, and then returned to the holding potential of 0 mV until the beginning of the next sweep. […] This ensures a minimum of 60 s per concentration incubation before measuring current block. Currents were acquired at 10 kHz and filtered at 2 kHz, leak subtraction and Rseries were disabled. A 1 MΩ minimum resistance was set because cells are held in an open channel state and therefore resistance is low.
A cumulative concentration response was measured where each cell is exposed to five concentrations of test article with a dilution factor of 1:5 (e.g., 0.048, 0.24, 1.2, 6, and 30 μM). Cells were recorded for ∼60 s per solution/compound addition. Initially, external solution is applied twice to allow currents to stabilize. Then vehicle (from the saline reservoir) is added twice to monitor any effect 0.3% DMSO might have on currents. This leads directly into the concentration runs by applying Concentration 1 (single addition) for 1 min. Concentration 2 is then applied for the subsequent minute, etc. Recovery/washout was monitored for a final minute with a final external solution addition.
[…] […] Each cell’s current magnitude was then normalized to itself at the initial 0.3% vehicle control period prior to compound application. This step is to account for differences in current size for each cell. Normalized responses to test article were plotted against their concentrations to reveal a concentration-inhibition plot.
A Normalized Group Hill fit was then performed on the plotted results to yield a pooled IC50 value, reconstructed from a minimum of two cells/concentration. The baseline response as well as the full response were constrained to 1 and 0, respectively.

| Compound | effect on inward current at −100 mV, whole cell patch clamp | IC50 [µM] | calcium-activated chloride current inhibited | time to achieve steady state block (1.11 μM) | time to achieve steady state block (3.3 μM) |
| --- | --- | --- | --- | --- | --- |
| CCc1oc2ccccc2c1C(=O)c1cc(Br)c(O)c(Br)c1 [Benzbromarone] | inhibited | 4.09 ± 2.08 | – | – | – |
| O=C(Nc1ncc([N+](=O)[O-])s1)c1cccs1 [NTTP] | – | 4.69 | – | – | – |
| Oc1ccc(Cl)cc1Cc1cc(Cl)ccc1O [Dichlorophen] | – | 4.66 ± 2.2 | – | – | – |
| O=C(Nc1ncc([N+](=O)[O-])s1)c1ccccc1O [Tizoxanide] | – | 4.42 ± 2.4 | – | – | – |
| CCc1c(C)nc(SCC(=O)Nc2nc(-c3ccc(OC)cc3)cs2)[nH]c1=O [T16Ainh-A01] | – | > 30 | – | – | – |
| N#Cc1c(C(F)(F)F)cc(O)n2c1nc1ccccc12 [1PBC] | paradoxical increase | 2.81 ± 1.25 | Over 80% | – | – |
| COc1cc(Nc2ccc([N+](=O)[O-])cc2C(=O)O)cc2ccccc12 [MONNA] | inhibited | 13.6 ± 9.76 | – | – | – |
| O=C(O)c1cccnc1Nc1cccc(C(F)(F)F)c1 [Niflumic Acid] | stimulating | 8.54 ± 6.75 | – | – | – |
| O=C(Nc1ccc(Cl)cc1)c1cc(Cl)ccc1O [Cpd 5] | – | 2.26 ± 0.65 | – | – | – |
| O=C(Nc1ccc([N+](=O)[O-])cc1)c1cc(Cl)c2ccccc2c1O [Cpd 3] | no significant effect | 0.61 ± 0.62 | – | – | – |
| O=C(Nc1ccc([N+](=O)[O-])cc1Cl)c1cc(Cl)ccc1O [Niclosamide] | paradoxical increase | 2.37 ± 2.11 | Over 80% | about 10 min | approximately 4 min |
| COc1cc([N+](=O)[O-])ccc1NC(=O)c1cc(Cl)c2ccccc2c1O [Cpd 4] | no significant effect | 0.62 ± 0.37 | – | – | – |

— paper PMC6382696, “Drug Repurposing: The Anthelmintics Niclosamide and Nitazoxanide Are Potent TMEM16A Antagonists That Fully Bronchodilate Airways” (Frontiers in Pharmacology, 2019)
